Experimental data reported in patent US11873499B2, “Methods of increasing nutrient use efficiency” (Institute of Genetics and Developmental Biology Chinese …, priority 2018, dated 2024).

Tests used:
[1] = system: NJ6 and NJ6-sd1 rice plants; experiment: 15N uptake analysis (root 15NH4+ uptake rate) in rice plants treated with GA and/or PAC; format: in vivo; details: FIG. 4a; for 15NH4+ uptake rate: 100 μM GA (GA3) and/or 2 μM paclobutrazol (PAC)
Text: (§1) Data shown as mean±s.e.m. (n=9). b, Relative root mRNA abundance in plants treated with GA and/or paclobutrazol (PAC). Data shown as mean±s.e.m. (n=3). c, Extent of ChIP-PCR OsGRF4-mediated enrichment of GCGG-containing promoter fragments from OsAMT1.1 (fragment 5) and OsGS1.2 (fragment 2) (shown in FIG. 2i) varies in response to treatment with GA and/or PAC. Data shown as mean±s.e.m. (n=3). d, BiFC assays reveal mutual interactions between SLR1, OsGRF4 and OsGIF1 in nuclei of tobacco leaf epidermal cell nuclei. Scale bar, 60 μm. e, Co-IP experiments with Flag-tagged SLR1 and HA-tagged OsGRF4 or HA-tagged OsGIF1. f, FRET images. Donor group: OsGIF1-CFP only; Acceptor group: OsGRF4-YFP only; FRET groups: OsGIF1-CFP and OsGRF4-YFP with and without SLR1. Scale bar, 200 μm. g, Mean N-FRET data for OsGIF1-CFP and OsGRF4-YFP channels. Data shown as mean±s.e.m. (n=6). […] OsGRF4-activated promotion of pOsAMT1.1 and pOsGS1.2 promoter::Luciferase fusion constructs is enhanced by OsGIF1 and inhibited by SLR1. Data shown as mean±s.e.m. (n=6). Statistical analyses used Duncan's multiple range tests, the same lowercase letter denotes non-significant difference between means (P>0.05; panels a-c, and i).
Hydroponic culture conditions were modified from those of Liu (2004)^32. Seeds were disinfected in 20% sodium hypochlorite solution for 30 min, thoroughly washed with deionized water, and then germinated in moist Perlite. 7-day-old seedlings were then selected and transplanted to PVC pots containing 40 L+N nutrient solution (1.25 mM NH4NO3, 0.5 mM NaH2PO4·2H2O, 0.75 mM K2SO4, 1 mM CaCl2), 1.667 mM MgSO4.7H2O, 40 μM Fe-EDTA (Na), 19 μM H3BO3, 9.1 μM MnSO4·H2O, 0.15 μM ZnSO4·7H2O, 0.16 μM CuSO4, and 0.52 μM […], pH 5.5). […]
Following growth in hydroponic culture for 4 weeks, rice root ^15NO3^− and ^15NH4^+ influx measurements were as described elsewhere^37,38. […] Roots and shoots were dried overnight at 80° C., and the ^15N content was measured using the Isoprime 100 (Elementar, Germany).

[2] = system: OsAMT1.1 and OsGS1.2 promoters; experiment: ChIP-PCR OsGRF4-mediated enrichment of GCGG-containing promoter fragments; format: in vivo, rice; details: treated with GA and/or PAC; FIG. 4c
Text: as §1, with “Statistical analyses used Duncan's multiple range tests, the same lowercase letter denotes non-significant difference between means (P>0.05; panels a-c, and i).” left out
˜2 g of two-week-old seedlings of transgenic p35S::flag-OsGRF4^ngr2 rice plants were fixed with 1% formaldehyde under vacuum for 15 min at 20-25° C., and then homogenized in liquid nitrogen. […] The reverse-crosslinked and precipitated DNA then served as template for quantitative RT-PCR.

[3] = system: OsAMT1.1 and OsGS1.2 mRNA; experiment: qRT-PCR relative root mRNA abundance in plants treated with GA and/or PAC; format: in vivo, rice; details: FIG. 4b
Text: as §1
Total RNAs were extracted from different rice plant organs using the TRIzol reagent (Invitrogen), and then treated with RNase-free DNase I (Invitrogen) according to the manufacturer's protocol. […]

OsGRF4 mRNA = OsGRF4 mRNA abundance, effect of GA and PAC; format: in vivo, rice; details: FIG. 15e, f
Text: In the absence of GA, SLR1 inhibits OsGRF4-OsGIF1 promotion of OsGRF4 transcription. In the presence of GA, SLR1 is destroyed via proteasome-mediated degradation, this promoting OsGRF4-OsGIF1 activated OsGRF4 transcription.
Total RNAs were extracted from different rice plant organs using the TRIzol reagent (Invitrogen), and then treated with RNase-free DNase I (Invitrogen) according to the manufacturer's protocol. Full-length cDNA was then reverse-transcribed using a cDNA synthesis kit (TRANSGEN, AE311). Subsequent qRT-PCR was performed according to the manufacturer's instructions (TRANSGEN, AQ101), using three independent RNA preparations as biological replicates. Rice Actin2 gene transcripts were used as a reference.

Glutamine synthase = Glutamine synthase (GS) activity in roots and shoots of treated rice plants; format: in vivo; details: roots and shoots of 2-week-old rice plants; 100 μM GA (GA3); FIG. 13
Experimental: Data shown as mean±s.e.m. (n=3). b, GS activities in shoots of plants treated with 100 μM GA (GA3) and/or 2 μM paclobutrazol (PAC), genotypes as indicated. Data shown as mean±s.e.m. (n=3).
Glutamine synthase and nitrate reductase activities were respectively determined with the Glutamine Synthetase Kit (Solarbio LIFE SCIENCES, BC0910) and the Nitrate Reductase Kit (Solarbio LIFE SCIENCES, BC0080) following the manufacturer's instructions.

[4] = system: pOscycA1;1 and pOscdc2Os-3 promoters; experiment: Transient transactivation assay (promoter::Luciferase) in rice protoplasts; format: cell-based; details: FIG. 5f
Text: Data shown as mean±s.e.m. (n=3). Abundances expressed relative to the level in NJ6-sd1. b, ChIP-PCR assays. Diagram depicts the OsPsbS1, OsTPS1 and OsSWEET11 promoters and regions used for ChIP-PCR. c, Transactivation assays. Data shown as mean±s.e.m. (n=9). d, Relative abundances of mRNAs transcribed from cell-cycle regulatory genes. Data shown as mean±s.e.m. (n=3). Abundances expressed relative to the level in NJ6-sd1. e, ChIP-PCR assays. Diagram depicts the OscycA1.1 and Oscdc2Os-3 promoters and regions used for Chl P-PCR. f, Transactivation assays. Data shown as mean±s.e.m. (n=12). Statistical analyses used Duncan's multiple range tests, the same lowercase letter denotes a non-significant difference between means (P>0.05).
˜3-kb DNA promoter fragments from each of OsAMT1.1, OsAMT1.2, OsGS1.2, OsGS2, OsNADH-GOGAT2, OsFd-GOGAT, OsCAB1, OsTPS1, OsSWEET11, OscycA1;1 or Oscdc2Os-3 were amplified from NJ6, and then subcloned into a pUC19 vector containing the firefly LUC reporter gene driven by the 35S minimal TATA box and 5×GAL4 binding elements, thus generating reporter plasmids containing specific promoters fused to LUC. The full-length OsGRF4 cDNA was amplified and fused to sequence encoding GAL4BD, thus generating the effector plasmid pRTBD-OsGRF4. Transient transactivation assays were performed using rice protoplasts as described elsewhere^36. […]

OsGRF4-OsGIF1 complex activation of transcription from pOscycA1;1 and pOscdc2Os-3 promoters [4] | Structure (SMILES) | 15NH4+ uptake rate [1] | ChIP-PCR enrichment of GCGG motif-containing fragments from the OsAMT1.1 and OsGS1.2 promoters [2] | OsAMT1.1 and OsGS1.2 mRNA abundances [3] | effect on the PAC-caused reduction of 15NH4+ uptake ([1]; GA together with PAC) | OsGRF4 mRNA abundance (OsGRF4 mRNA) | GS activity (Glutamine synthase)
– | CC(C)(C)[C@@H](O)[C@@H](Cc1ccc(Cl)cc1)n1cncn1 (racemic) [PAC, paclobutrazol] | reduces | reduces | reduced | – | – | –
promotes | C=C1C[C@]23C[C@@]1(O)CC[C@H]2[C@@]12C=C[C@H](O)[C@@](C)(C(=O)O1)[C@H]2[C@@H]3C(=O)O [GA, Gibberellic acid] | promotes | promotes | increased | abolishes this effect | GA-regulated | promotes
